Literature values, collected in patent US8940506B2, “High-sensitive fluorescent energy transfer assay using fluoresent amino acids and fluorescent proteins” (The Regents of the University of California, priority 2008, dated 2015).

System: cancer cells
Conditions: by disrupting the interaction of ubiquitin E3 ligase MDM2 and its substrate p53

In the case of `COc1ccc(C2=N[C@@H](c3ccc(Cl)cc3)[C@@H](c3ccc(Cl)cc3)N2C(=O)N2CCNC(=O)C2)c(OC(C)C)c1` [Nutlin-3], the “apoptosis and growth inhibition of cancer cells” value is listed as “induce apoptosis and growth inhibition of cancer cells”.
